From ChEMBL document CHEMBL3046887, “Microwave-irradiated synthesis and antimicrobial activity of 2-phenyl-7-substitutedalkyl/arylaminoquinoline-4-carboxylic acid derivatives” (2010)
Calls of active or inactive are those of the source. The calls are words filed in the database; no cut-off is given here.

Assays:
Type in all cases: functional
Pseudomonas oleovorans = assay: Antibacterial activity against Pseudomonas oleovorans MTCC 617 at 10 ug/well after 24 hr by agar well diffusion method; details: Ectopseudomonas oleovorans; for zone of inhibition at 10 µg/disc: MTCC 617, 24 h, read-out: DIZ
Pseudomonas aeruginosa [1] = assay: Antibacterial activity against Pseudomonas aeruginosa MTCC 741 at 10 ug/well after 24 hr by agar well diffusion method; details: for zone of inhibition at 10 µg/disc: MTCC 741, 24 h, read-out: DIZ
Enterococcus faecalis = assay: Antibacterial activity against Enterococcus faecalis MTCC 439 at 10 ug/well after 24 hr by agar well diffusion method; details: for zone of inhibition at 10 µg/disc: MTCC 439, 24 h, read-out: DIZ
Klebsiella pneumoniae = assay: Antibacterial activity against Klebsiella pneumoniae MTCC 109 at 10 ug/well after 24 hr by agar well diffusion method; details: for zone of inhibition at 10 µg/disc: MTCC 109, 24 h, read-out: DIZ
Escherichia coli = assay: Antibacterial activity against Escherichia coli MTCC 1652 at 10 ug/well after 24 hr by agar well diffusion method; details: for zone of inhibition at 10 µg/disc: MTCC 1652, 24 h, read-out: DIZ
Streptococcus pyogenes [2] = assay: Antibacterial activity against Streptococcus pyogenes MTCC 442 at 10 ug/well after 24 hr by agar well diffusion method; details: for zone of inhibition at 10 µg/disc: MTCC 442, 24 h, read-out: DIZ
Bacillus pumilus = assay: Antibacterial activity against Bacillus pumilus MTCC 1640 at 10 ug/well after 24 hr by agar well diffusion method; details: for zone of inhibition at 10 µg/disc: MTCC 1640, 24 h, read-out: DIZ
Bacillus cereus = assay: Antibacterial activity against Bacillus cereus MTCC 430 at 10 ug/well after 24 hr by agar well diffusion method; details: for zone of inhibition at 10 µg/disc: MTCC 430, 24 h, read-out: DIZ
Bacillus subtilis = assay: Antibacterial activity against Bacillus subtilis MTCC 2397 at 10 ug/well after 24 hr by agar well diffusion method; details: for zone of inhibition at 10 µg/disc: MTCC 2397, 24 h, read-out: DIZ
Staphylococcus aureus = assay: Antibacterial activity against Staphylococcus aureus MTCC 737 at 10 ug/well after 24 hr by agar well diffusion method; details: for zone of inhibition at 10 µg/disc: MTCC 737, 24 h, read-out: DIZ
Pseudomonas aeruginosa [3] = assay: Antibacterial activity against Pseudomonas aeruginosa MTCC 741 after 24 hr by agar dilution method
Streptococcus pyogenes [4] = assay: Antibacterial activity against Streptococcus pyogenes MTCC 442 after 24 hr by agar dilution method

GENTAMICIN
inhibition zone (IZ) (Pseudomonas oleovorans): 19 mm
inhibition zone (IZ) (Pseudomonas aeruginosa [1]): 19 mm
inhibition zone (IZ) (Enterococcus faecalis): 18 mm
inhibition zone (IZ) (Klebsiella pneumoniae): 16 mm
inhibition zone (IZ) (Escherichia coli): 16 mm
inhibition zone (IZ) (Streptococcus pyogenes [2]): 17 mm
inhibition zone (IZ) (Bacillus pumilus): 17 mm
inhibition zone (IZ) (Bacillus cereus): 17 mm
inhibition zone (IZ) (Bacillus subtilis): 19 mm
inhibition zone (IZ) (Staphylococcus aureus): 16 mm

COc1ccc(Nc2ccc3c(C(=O)O)cc(-c4ccccc4)nc3c2)cc1
zone of inhibition at 10 µg/disc (Pseudomonas oleovorans): 5 mm
zone of inhibition at 10 µg/disc (Pseudomonas aeruginosa [1]): 8 mm
zone of inhibition at 10 µg/disc (Enterococcus faecalis): 8 mm
zone of inhibition at 10 µg/disc (Klebsiella pneumoniae): 3 mm
zone of inhibition at 10 µg/disc (Escherichia coli): 3 mm
zone of inhibition at 10 µg/disc (Streptococcus pyogenes [2]): 5 mm
zone of inhibition at 10 µg/disc (Bacillus pumilus): 3 mm
zone of inhibition at 10 µg/disc (Bacillus cereus): 4 mm
zone of inhibition at 10 µg/disc (Bacillus subtilis): 4 mm
zone of inhibition at 10 µg/disc (Staphylococcus aureus): 2 mm

NS(=O)(=O)c1ccc(Nc2ccc3c(C(=O)O)cc(-c4ccccc4)nc3c2)cc1
zone of inhibition at 10 µg/disc (Pseudomonas oleovorans): 11 mm
zone of inhibition at 10 µg/disc (Pseudomonas aeruginosa [1]): 4 mm
zone of inhibition at 10 µg/disc (Enterococcus faecalis): 5 mm
diameter of the inhibition zone (DIZ) (Klebsiella pneumoniae): inactive
zone of inhibition at 10 µg/disc (Escherichia coli): 8 mm
zone of inhibition at 10 µg/disc (Streptococcus pyogenes [2]): 5 mm
zone of inhibition at 10 µg/disc (Bacillus pumilus): 2 mm
zone of inhibition at 10 µg/disc (Bacillus cereus): 5 mm
zone of inhibition at 10 µg/disc (Bacillus subtilis): 5 mm
zone of inhibition at 10 µg/disc (Staphylococcus aureus): 9 mm

O=C(O)c1cc(-c2ccccc2)nc2cc(Cl)ccc12
zone of inhibition at 10 µg/disc (Pseudomonas oleovorans): 6 mm
zone of inhibition at 10 µg/disc (Pseudomonas aeruginosa [1]): 2 mm
zone of inhibition at 10 µg/disc (Enterococcus faecalis): 7 mm
zone of inhibition at 10 µg/disc (Klebsiella pneumoniae): 3 mm
zone of inhibition at 10 µg/disc (Escherichia coli): 7 mm
zone of inhibition at 10 µg/disc (Streptococcus pyogenes [2]): 4 mm
zone of inhibition at 10 µg/disc (Bacillus pumilus): 8 mm
zone of inhibition at 10 µg/disc (Bacillus cereus): 4 mm
zone of inhibition at 10 µg/disc (Bacillus subtilis): 5 mm
diameter of the inhibition zone (DIZ) (Staphylococcus aureus): inactive

O=C(O)c1cc(-c2ccccc2)nc2cc(Nc3ccc([N+](=O)[O-])cc3)ccc12
zone of inhibition at 10 µg/disc (Pseudomonas oleovorans): 8 mm
diameter of the inhibition zone (DIZ) (Pseudomonas aeruginosa [1]): inactive
zone of inhibition at 10 µg/disc (Enterococcus faecalis): 3 mm
diameter of the inhibition zone (DIZ) (Klebsiella pneumoniae): inactive
zone of inhibition at 10 µg/disc (Escherichia coli): 12 mm
zone of inhibition at 10 µg/disc (Streptococcus pyogenes [2]): 2 mm
zone of inhibition at 10 µg/disc (Bacillus pumilus): 11 mm
zone of inhibition at 10 µg/disc (Bacillus cereus): 9 mm
zone of inhibition at 10 µg/disc (Bacillus subtilis): 5 mm
zone of inhibition at 10 µg/disc (Staphylococcus aureus): 7 mm

O=C(O)c1cc(-c2ccccc2)nc2cc(Nc3nccs3)ccc12
MIC (Pseudomonas aeruginosa [3]): 3 µg
MIC (Streptococcus pyogenes [4]): 5 µg
zone of inhibition at 10 µg/disc (Pseudomonas oleovorans): 13 mm
zone of inhibition at 10 µg/disc (Pseudomonas aeruginosa [1]): 15 mm
zone of inhibition at 10 µg/disc (Enterococcus faecalis): 12 mm
zone of inhibition at 10 µg/disc (Klebsiella pneumoniae): 5 mm
zone of inhibition at 10 µg/disc (Escherichia coli): 7 mm
zone of inhibition at 10 µg/disc (Streptococcus pyogenes [2]): 13 mm
zone of inhibition at 10 µg/disc (Bacillus pumilus): 12 mm
zone of inhibition at 10 µg/disc (Bacillus cereus): 13 mm
zone of inhibition at 10 µg/disc (Bacillus subtilis): 9 mm
zone of inhibition at 10 µg/disc (Staphylococcus aureus): 10 mm

O=C(O)c1cc(-c2ccccc2)nc2cc(Nc3ccccc3)ccc12
MIC (Pseudomonas aeruginosa [3]): 9 µg
MIC (Streptococcus pyogenes [4]): 4 µg
zone of inhibition at 10 µg/disc (Pseudomonas oleovorans): 12 mm
zone of inhibition at 10 µg/disc (Pseudomonas aeruginosa [1]): 4 mm
zone of inhibition at 10 µg/disc (Enterococcus faecalis): 9 mm
zone of inhibition at 10 µg/disc (Klebsiella pneumoniae): 5 mm
zone of inhibition at 10 µg/disc (Escherichia coli): 10 mm
zone of inhibition at 10 µg/disc (Streptococcus pyogenes [2]): 7 mm
zone of inhibition at 10 µg/disc (Bacillus pumilus): 5 mm
zone of inhibition at 10 µg/disc (Bacillus cereus): 10 mm
zone of inhibition at 10 µg/disc (Bacillus subtilis): 9 mm
zone of inhibition at 10 µg/disc (Staphylococcus aureus): 8 mm

NC(=S)Nc1ccc2c(C(=O)O)cc(-c3ccccc3)nc2c1
zone of inhibition at 10 µg/disc (Pseudomonas oleovorans): 7 mm
zone of inhibition at 10 µg/disc (Pseudomonas aeruginosa [1]): 12 mm
zone of inhibition at 10 µg/disc (Enterococcus faecalis): 9 mm
diameter of the inhibition zone (DIZ) (Klebsiella pneumoniae): inactive
zone of inhibition at 10 µg/disc (Escherichia coli): 5 mm
zone of inhibition at 10 µg/disc (Streptococcus pyogenes [2]): 5 mm
zone of inhibition at 10 µg/disc (Bacillus pumilus): 3 mm
zone of inhibition at 10 µg/disc (Bacillus cereus): 5 mm
diameter of the inhibition zone (DIZ) (Bacillus subtilis): inactive
zone of inhibition at 10 µg/disc (Staphylococcus aureus): 9 mm

O=C(O)CNc1ccc2c(C(=O)O)cc(-c3ccccc3)nc2c1
zone of inhibition at 10 µg/disc (Pseudomonas oleovorans): 8 mm
zone of inhibition at 10 µg/disc (Pseudomonas aeruginosa [1]): 4 mm
zone of inhibition at 10 µg/disc (Enterococcus faecalis): 7 mm
zone of inhibition at 10 µg/disc (Klebsiella pneumoniae): 5 mm
zone of inhibition at 10 µg/disc (Escherichia coli): 2 mm
zone of inhibition at 10 µg/disc (Streptococcus pyogenes [2]): 5 mm
zone of inhibition at 10 µg/disc (Bacillus pumilus): 2 mm
zone of inhibition at 10 µg/disc (Bacillus cereus): 4 mm
diameter of the inhibition zone (DIZ) (Bacillus subtilis): inactive
diameter of the inhibition zone (DIZ) (Staphylococcus aureus): inactive

O=C(O)c1cc(-c2ccccc2)nc2cc(N3CCNCC3)ccc12
zone of inhibition at 10 µg/disc (Pseudomonas oleovorans): 11 mm
zone of inhibition at 10 µg/disc (Pseudomonas aeruginosa [1]): 4 mm
zone of inhibition at 10 µg/disc (Enterococcus faecalis): 7 mm
zone of inhibition at 10 µg/disc (Klebsiella pneumoniae): 6 mm
zone of inhibition at 10 µg/disc (Escherichia coli): 10 mm
zone of inhibition at 10 µg/disc (Streptococcus pyogenes [2]): 7 mm
zone of inhibition at 10 µg/disc (Bacillus pumilus): 5 mm
zone of inhibition at 10 µg/disc (Bacillus cereus): 5 mm
zone of inhibition at 10 µg/disc (Bacillus subtilis): 2 mm
zone of inhibition at 10 µg/disc (Staphylococcus aureus): 4 mm

Cc1ccc(Nc2ccc3c(C(=O)O)cc(-c4ccccc4)nc3c2)cc1
zone of inhibition at 10 µg/disc (Pseudomonas oleovorans): 8 mm
zone of inhibition at 10 µg/disc (Pseudomonas aeruginosa [1]): 3 mm
zone of inhibition at 10 µg/disc (Enterococcus faecalis): 9 mm
zone of inhibition at 10 µg/disc (Klebsiella pneumoniae): 3 mm
zone of inhibition at 10 µg/disc (Escherichia coli): 8 mm
zone of inhibition at 10 µg/disc (Streptococcus pyogenes [2]): 7 mm
zone of inhibition at 10 µg/disc (Bacillus pumilus): 9 mm
zone of inhibition at 10 µg/disc (Bacillus cereus): 6 mm
zone of inhibition at 10 µg/disc (Bacillus subtilis): 6 mm
zone of inhibition at 10 µg/disc (Staphylococcus aureus): 5 mm

O=C(O)c1cc(-c2ccccc2)nc2cc(Nc3ccncc3)ccc12
zone of inhibition at 10 µg/disc (Pseudomonas oleovorans): 4 mm
zone of inhibition at 10 µg/disc (Pseudomonas aeruginosa [1]): 5 mm
zone of inhibition at 10 µg/disc (Enterococcus faecalis): 7 mm
zone of inhibition at 10 µg/disc (Klebsiella pneumoniae): 4 mm
zone of inhibition at 10 µg/disc (Escherichia coli): 4 mm
diameter of the inhibition zone (DIZ) (Streptococcus pyogenes [2]): inactive
zone of inhibition at 10 µg/disc (Bacillus pumilus): 6 mm
zone of inhibition at 10 µg/disc (Bacillus cereus): 5 mm
zone of inhibition at 10 µg/disc (Bacillus subtilis): 5 mm
zone of inhibition at 10 µg/disc (Staphylococcus aureus): 3 mm

CC1COc2c(N3CCN(C)CC3)c(F)cc3c(=O)c(C(=O)O)cn1c23 (centres undefined) [OFLOXACIN]
zone of inhibition at 10 µg/disc (Pseudomonas oleovorans): 17 mm
zone of inhibition at 10 µg/disc (Pseudomonas aeruginosa [1]): 16 mm
zone of inhibition at 10 µg/disc (Enterococcus faecalis): 16 mm
zone of inhibition at 10 µg/disc (Klebsiella pneumoniae): 19 mm
zone of inhibition at 10 µg/disc (Escherichia coli): 17 mm
zone of inhibition at 10 µg/disc (Streptococcus pyogenes [2]): 17 mm
zone of inhibition at 10 µg/disc (Bacillus pumilus): 17 mm
zone of inhibition at 10 µg/disc (Bacillus cereus): 16 mm
zone of inhibition at 10 µg/disc (Bacillus subtilis): 17 mm
zone of inhibition at 10 µg/disc (Staphylococcus aureus): 16 mm

NC(=O)Nc1ccc2c(C(=O)O)cc(-c3ccccc3)nc2c1
zone of inhibition at 10 µg/disc (Pseudomonas oleovorans): 9 mm
zone of inhibition at 10 µg/disc (Pseudomonas aeruginosa [1]): 9 mm
zone of inhibition at 10 µg/disc (Enterococcus faecalis): 6 mm
zone of inhibition at 10 µg/disc (Klebsiella pneumoniae): 6 mm
zone of inhibition at 10 µg/disc (Escherichia coli): 7 mm
zone of inhibition at 10 µg/disc (Streptococcus pyogenes [2]): 9 mm
zone of inhibition at 10 µg/disc (Bacillus pumilus): 6 mm
zone of inhibition at 10 µg/disc (Bacillus cereus): 10 mm
zone of inhibition at 10 µg/disc (Bacillus subtilis): 9 mm
zone of inhibition at 10 µg/disc (Staphylococcus aureus): 9 mm

O=C(O)c1cc(-c2ccccc2)nc2cc(Nn3cnnc3)ccc12
zone of inhibition at 10 µg/disc (Pseudomonas oleovorans): 4 mm
diameter of the inhibition zone (DIZ) (Pseudomonas aeruginosa [1]): inactive
zone of inhibition at 10 µg/disc (Enterococcus faecalis): 3 mm
zone of inhibition at 10 µg/disc (Klebsiella pneumoniae): 4 mm
zone of inhibition at 10 µg/disc (Escherichia coli): 3 mm
diameter of the inhibition zone (DIZ) (Streptococcus pyogenes [2]): inactive
zone of inhibition at 10 µg/disc (Bacillus pumilus): 2 mm
zone of inhibition at 10 µg/disc (Bacillus cereus): 3 mm
diameter of the inhibition zone (DIZ) (Bacillus subtilis): inactive
zone of inhibition at 10 µg/disc (Staphylococcus aureus): 2 mm
